Source: patent US11477982B2, “2-amino-5-oxyalkyl-pyrimidine derivatives and their use for controlling undesired plant growth” (Bayer CropScience Aktiengesellschaft, priority 2017, dated 2022)

Experiments:
Format in all cases: in vivo
[1] = test system: STEME: Stellaria media; assay: Post-emergence herbicidal effect; settings: dosage 320 g/ha
Procedure: (§1) 2. Post-Emergence Herbicidal Effect and Crop Plant Compatibility
(§2) Seeds of monocotyledonous and dicotyledonous weeds and crop plants are placed in sandy loam in plastic or wood-fiber pots, covered with soil and cultivated in a greenhouse under controlled growth conditions, 2 to 3 weeks after sowing, the test plants are treated at the one-leaf stage. The compounds of the invention, formulated in the form of wettable powders (WP) or as emulsion concentrates (EC), are then sprayed onto the green parts of the plants as aqueous suspension or emulsion with addition of 0.5% additive at a water application rate of 600 l/ha (converted). After the test plants had been kept in the greenhouse under optimum growth conditions for about 3 weeks, the activity of the preparations is rated visually in comparison to untreated controls. For example, 100% activity=the plants have died, 0% activity=like control plants.

[2] = test system: VIOTR: Viola tricolor; assay: Post-emergence herbicidal effect; settings: dosage 320 g/ha
Procedure: as §1, §2

[3] = test system: ABUTH: Abutilon theophrasti; assay: Post-emergence herbicidal effect; settings: dosage 320 g/ha
Procedure: as §1, §2

[4] = test system: AMARE: Amaranthus retroflexus; assay: Post-emergence herbicidal effect; settings: dosage 320 g/ha
Procedure: as §1, §2

[5] = test system: VERPE: Veronica persica; assay: Post-emergence herbicidal effect; settings: dosage 320 g/ha
Procedure: as §1, §2

[6] = test system: SETVI: Setaria viridis; assay: Post-emergence herbicidal effect; settings: dosage 320 g/ha
Procedure: as §1, §2

[7] = test system: ECHCG: Echinochloa crus-galli; assay: Post-emergence herbicidal effect; settings: dosage 320 g/ha
Procedure: as §1, §2

[8] = test system: VIOTR: Viola tricolor; assay: Pre-emergence herbicidal effect; settings: dosage 320 g/ha
From the text: (§3) 1. Pre-Emergence Herbicidal Effect and Crop Plant Compatibility
(§4) Seeds of monocotyledonous and dicotyledonous weed plants and crop plants are placed in plastic or wood fiber pots and covered with soil. The compounds of the invention, formulated in the form of wettable powders (WP) or as emulsion concentrates (EC), are then applied onto the surface of the covering soil as aqueous suspension or emulsion with addition of 0.5% additive at a water application rate of 600 l/ha (converted).
(§5) After the treatment, the pots are placed in a greenhouse and kept under good growth conditions for the trial plants. After about 3 weeks, the effect of the preparations is scored visually in comparison with untreated controls as percentages. For example, 100% activity=the plants have died, 0% activity=like control plants.

[9] = test system: AMARE: Amaranthus retroflexus; assay: Pre-emergence herbicidal effect; settings: pre-emergence; dosage 320 g/ha
From the text: as §3, §4, §5

[10] = test system: VERPE: Veronica persica; assay: Pre-emergence herbicidal effect; settings: dosage 320 g/ha
From the text: as §3, §4, §5

[11] = test system: MATIN: Matricaria inodora; assay: Pre-emergence herbicidal effect; settings: pre-emergence; dosage 320 g/ha
From the text: as §3, §4, §5

[12] = test system: POLCO: Polygonum convolvulus; assay: Pre-emergence herbicidal effect; settings: dosage 320 g/ha
From the text: as §3, §4, §5

[13] = test system: STEME: Stellaria media; assay: Pre-emergence herbicidal effect; settings: pre-emergence; dosage 320 g/ha
From the text: as §3, §4, §5

[14] = test system: ABUTH: Abutilon theophrasti; assay: Pre-emergence herbicidal effect; settings: dosage 320 g/ha
From the text: as §3, §4, §5

[15] = test system: LOLRI: Lolium rigidum; assay: Pre-emergence herbicidal effect; settings: dosage 320 g/ha
From the text: as §3, §4, §5

[16] = test system: ALOMY: Alopecurus myosuroides; assay: Pre-emergence herbicidal effect; settings: pre-emergence; dosage 320 g/ha
From the text: as §3, §4, §5

[17] = test system: AVEFA: Avena fatua; assay: Pre-emergence herbicidal effect; settings: dosage 320 g/ha
From the text: as §3, §4, §5

[18] = test system: SETVI: Setaria viridis; assay: Pre-emergence herbicidal effect; settings: pre-emergence; dosage 320 g/ha
From the text: as §3, §4, §5

[19] = test system: HORMU: Hordeum murinum; assay: Pre-emergence herbicidal effect; settings: pre-emergence; dosage 320 g/ha
From the text: as §3, §4, §5

[20] = test system: PHBPU: Ipomoea purpurea; assay: Pre-emergence herbicidal effect; settings: dosage 320 g/ha
From the text: as §3, §4, §5

[21] = test system: ECHCG: Echinochloa crus-galli; assay: Pre-emergence herbicidal effect; settings: pre-emergence; dosage 320 g/ha
From the text: as §3, §4, §5

Row | Structure (SMILES) | Herbicidal action against STEME [1] [%] | Herbicidal action against VIOTR [2] [%] | Herbicidal action against ABUTH [3] [%] | Herbicidal action against AMARE [4] [%] | Herbicidal action against VERPE [5] [%] | Herbicidal action against SETVI [6] [%] | Herbicidal action against ECHCG [7] [%] | Herbicidal action against VIOTR [8] [%] | Herbicidal action against AMARE [9] [%] | Herbicidal action against VERPE [10] [%] | Herbicidal action against MATIN [11] [%] | Herbicidal action against POLCO [12] [%] | Herbicidal action against STEME [13] [%] | Herbicidal action against ABUTH [14] [%] | Herbicidal action against LOLRI [15] [%] | Herbicidal action against ALOMY [16] [%] | Herbicidal action against AVEFA [17] [%] | Herbicidal action against SETVI [18] [%] | Herbicidal action against HORMU [19] [%] | Herbicidal action against PHBPU [20] [%] | further results
1 | CCC(O)(c1cnc(N[C@H]2c3cc(C)ccc3C[C@@H]2C)nc1)C(F)(F)F (stereo partly drawn) [Example 1.58] | 90 | 90 | 90 | 90 | 90 | 90 | 100 | 100 | 100 | 100 | 100 | 100 |  |  |  |  |  |  |  |  | 
2 | CCc1ccc2c(c1)[C@H](Nc1ncc(C(C)(C)O)c(C)n1)CC2 [Example 1.57] | 90 | 90 | 90 | 100 | 90 | 90 | 100 | 100 | 100 | 100 | 100 | 100 | 100 | 100 | 100 | 100 | 100 | 100 | 100 | 100 | Herbicidal action against ECHCG [21]: 100%
3 | CCc1ccc2c(c1)[C@H](Nc1ncc(C(C)(C)O)cn1)CC2 [Example 1.31] | 100 | 90 | 90 | 100 | 90 | 90 | 100 | 100 | 100 | 100 | 100 | 100 | 100 | 100 | 100 | 100 | 100 | 100 | 100 | 100 | Herbicidal action against ECHCG [21]: 100%
4 | Cc1ccc2c(c1)[C@H](Nc1ncc(C(C)(O)C(F)(F)F)cn1)[C@@H](C)C2 (stereo partly drawn) [Example 1.11] | 100 | 90 | 90 | 100 | 90 | 100 | 100 | 100 | 100 | 100 | 100 | 100 | 100 | 100 | 100 | 100 | 100 | 100 | 100 | 80 | Herbicidal action against ECHCG [21]: 100%
5 | Cc1ccc2c(c1)C(Nc1ncc(C(C)(C)O)cn1)CCC2 (racemic) [Example 1.43] | 100 | 90 | 90 | 90 | 90 | 90 | 100 | 100 | 100 | 100 | 100 | 100 | 100 | 100 | 100 | 100 | 100 | 100 | 100 | 100 | Herbicidal action against ECHCG [21]: 100%
6 | Cc1ccc2c(c1)[C@H](Nc1ncc(C(C)(C)O)cn1)CC2 [Example 1.5] | 100 | 90 | 100 | 100 | 90 | 90 | 100 | 100 | 100 | 100 | 100 | 100 | 100 | 100 | 100 | 100 | 100 | 100 | 100 | 100 | Herbicidal action against ECHCG [21]: 100%
7 | Cc1ccc2c(c1)[C@H](Nc1ncc(C(C)(C)O)cn1)CCO2 [Example 1.38] | 100 | 90 | 90 | 100 | 90 | 90 | 100 | 100 | 100 | 100 | 100 | 100 |  |  |  |  |  |  |  |  | 
8 | Cc1ccc2c(c1)[C@H](Nc1ncc(C(C)O)c(C)n1)CC2 (stereo partly drawn) [Example 1.13] | 90 |  | 80 | 90 |  |  | 100 | 100 | 100 | 100 | 100 | 100 | 100 | 100 | 100 | 100 | 100 | 100 | 100 | 100 | Herbicidal action against ECHCG [21]: 100%
9 | CC(C)(O)c1cnc(N[C@@H]2CCc3ccccc32)nc1 [Example 1.30] | 100 | 90 | 90 | 100 | 80 | 90 | 100 | 100 | 100 | 100 | 100 | 100 |  |  |  |  |  |  |  |  | 
